Assay results from patent publication US4302535A, “Assay for mutagenesis in heterozygous diploid human lymphoblasts” (Massachusetts Institute of Technology, priority 1979, dated 1981).

Tests used:
TK6 cell line = test: Mutation assay employing TK6 cell line: induction of TFTdR-resistant mutants (Example 2, Table 1); type: cell-based, human
Description: One cell line, TK6, isolated in Example 1, was maintained in spinner culture at 37° C. with a doubling time of approximately 18 hours. Approximately 10^7 cells (4×10^5 /ml) were treated with either BMS (1 mM) of ICR-191 (0.25 μg/ml and 0.50 μg/ml) for 24 hours. After treatment, the cells were centrifuged and resuspended in fresh medium at a concentration of 3×10^5 /ml. Dilutions to 3×10^5 /ml were made daily.
At various times after treatment, duplicate aliquots of 4×10^6 cells were centrifuged and resuspended in 10 ml of RPMI containing 20% FCS, 100 μ/ml penicillin, and 0.25% agarose (plating agar). To determine the plating efficiency of the culture, a […] sample of the suspension containing 4000 cells was added to 5 ml of plating agar and layered over 5 ml prejelled layer of the same medium in a 100 mm petri dish. […] The suspension was then plated in two 5 ml aliquots, each layered over a prejelled layer of plating agar in a 100 mm petri dish (final TFTdR concentration=1 μg/ml). The plates were fed the following day with 3 ml of medium.
The plates were counted after 7-10 days in a 37° C., 5% CO2, humidified incubator.

TK6 cells [1] = test: Optimization of selective agent concentration (Example 6, FIG. 4); type: cell-based, human; conditions: 0.33 μg/ml through 10 μg/ml; microtiter plates, two weeks
Text: FIG. 4 is a plot of the data obtained wherein each point is the average of two independent platings.

[2] = system: trifluorothymidine-resistant TK6 mutant clones and TK6; test: Growth of trifluorothymidine-resistant mutants in various media (Example 4, Table 2); type: cell-based, human; parameters: key to T2 - F3 TdR (doubling time): NG means no growth was observed in 3 days; conditions: F3 TdR 1.0 μg/ml
Description: Growth experiments were performed approximately three weeks later, in 25 cm^2 […] total volume. […] RPMI is normal medium with 15% fetal calf serum. […] CHAT contained 1×10^-5 M cytidine, 2×10^-4 M hypoxanthine, 2×10^-7 M aminopterin, and 1.75×10^-5 M thymidine.

[3] = system: trifluorothymidine-resistant TK6 mutant clones; test: Plating efficiency of induced mutants in trifluorothymidine (Example 6, Table 3); type: cell-based, human
Text: The effect of dead TK6 cells on the expression of mutants growing in microtiter plates was also studied.

[4] = system: TK6 cells and trifluorothymidine-resistant mutants; test: Reconstruction experiment: toxicity of BMS to TK6 and mutants (Example 7, FIG. 5); type: cell-based, human; conditions: 24 hours exposure; relative surviving fraction
Description: TK6 cells were exposed to BMS for 24 hours. After treatment, the relative surviving fraction was determined by plating in micro wells.

TK6 cells [5] = test: Mutagenicity of polyaromatic hydrocarbons, trifluorothymidine resistance (Example 8, Table 4); conditions: conclusion from plots and tables
Description: Three polyaromatic hydrocarbons derived from kerosine soot were examined for mutagenicity.
Error bars are the standard deviation of the mean.
For perylene, TK6 cells were treated in duplicate with perylene for 3 hours in the presence of 5% (v/v) aroclor-induced rat liver post-mitochondrial supernatant.

TK6 cells [6] = conditions: induced by BMS (3 mM, 2 hours), 5 μg/ml 6-thioguanine
[7] = 0.25 μg/ml × 24 Hrs, day 0 post-treatment
[8] = 0.25 μg/ml × 24 Hrs, day 2 post-treatment
[9] = 0.25 μg/ml × 24 Hrs, day 4 post-treatment
[10] = 0.5 μg/ml × 24 Hrs, day 0 post-treatment
[11] = 0.5 μg/ml × 24 Hrs, day 2 post-treatment
[12] = 0.5 μg/ml × 24 Hrs, day 4 post-treatment
[13] = 1 mM × 24 Hrs, day 1 post-treatment
[14] = 1 mM × 24 Hrs, day 3 post-treatment
[15] = 1 mM × 24 Hrs, day 5 post-treatment

## COc1ccc2nc3cc(Cl)ccc3c(NCCCNCCCl)c2c1 [ICR-191]
TK6 cell line; [7]
  Observed Mutants per 4 × 10^6 Cells: 26
  Plating Efficiency: 0.25
TK6 cell line; [8]
  Observed Mutants per 4 × 10^6 Cells: 139
  Plating Efficiency: 0.26
TK6 cell line; [9]
  Observed Mutants per 4 × 10^6 Cells: 126
  Plating Efficiency: 0.27
TK6 cell line; [10]
  Observed Mutants per 4 × 10^6 Cells: 55
  Plating Efficiency: 0.24
TK6 cell line; [11]
  Observed Mutants per 4 × 10^6 Cells: 229
  Plating Efficiency: 0.25
TK6 cell line; [12]
  Observed Mutants per 4 × 10^6 Cells: 182
  Plating Efficiency: 0.20

## O=c1[nH]c(=O)n([C@H]2C[C@H](O)[C@@H](CO)O2)cc1C(F)(F)F [trifluorothymidine]
TK6 cells [1]
  observed mutant fraction of an untreated culture versus trifluorothymidine concentration: no difference in the observed mutant fraction
[2]; TK6
  T2 - F3 TdR (doubling time): NG
[2]; all mutants
  growth of mutants in F3 TdR: all mutants grew well
[2]; mutant BMS-2
  T2 - F3 TdR (doubling time): 18.4
[2]; mutant BMS-3
  T2 - F3 TdR (doubling time): 19.2
[2]; mutant BMS-4
  T2 - F3 TdR (doubling time): 17.7
[2]; mutant BMS-5
  T2 - F3 TdR (doubling time): 19.7
[2]; mutant ICR-1
  T2 - F3 TdR (doubling time): 18.6
[2]; mutant ICR-2
  T2 - F3 TdR (doubling time): 21.2
[3]; mutant BMS-2
  PE in RPMI - F3 TdR: 0.09
  PE in RPMI-F3 TdR with 40,000 TK6/well: 0.09
[3]; mutant BMS-3
  PE in RPMI - F3 TdR: 0.21
  PE in RPMI-F3 TdR with 40,000 TK6/well: 0.17
[3]; mutant BMS-4
  PE in RPMI - F3 TdR: 0.11
  PE in RPMI-F3 TdR with 40,000 TK6/well: 0.15
[3]; mutant BMS-5
  PE in RPMI - F3 TdR: 0.29
  PE in RPMI-F3 TdR with 40,000 TK6/well: 0.31
[3]; mutant ICR-1
  PE in RPMI - F3 TdR: 0.21
  PE in RPMI-F3 TdR with 40,000 TK6/well: 0.21
[3]; mutant ICR-2
  PE in RPMI - F3 TdR: 0.09
  PE in RPMI-F3 TdR with 40,000 TK6/well: 0.10

## CCCCOS(C)(=O)=O [BMS, butylmethane sulfonate]
[4]
  toxicity to TK6 and a mixture of mutants or a single mutant clone: equally toxic
TK6 cell line; [13]
  Observed Mutants per 4 × 10^6 Cells: 132
  Plating Efficiency: 0.094
TK6 cell line; [14]
  Observed Mutants per 4 × 10^6 Cells: 275
  Plating Efficiency: 0.15
TK6 cell line; [15]
  Observed Mutants per 4 × 10^6 Cells: 387
  Plating Efficiency: 0.23

## c1ccc2c(c1)-c1cccc3cccc-2c13 [fluoranthene]
TK6 cells [5]
  mutagenic activity for these human cells: active as mutagens

## Nc1nc2nc[nH]c2c(=S)[nH]1 [6-thioguanine]
TK6 cells [6]
  phenotypic expression time of 6-thioguanine resistance: 5 to 6 days

## c1cc2cccc3c4cccc5cccc(c(c1)c23)c54 [perylene]
TK6 cells [5]
  mutagenic activity for these human cells: inactive
